According to BigSolDB 2.1:

O=C(O)c1c(O)cccc1O
solubility (mole fraction)
Conditions | 278.15 K | 283.15 K | 288.15 K | 293.15 K | 298.15 K | 303.15 K | 308.15 K | 313.15 K | 318.15 K
in ethanol | 0.221 | 0.234 | 0.245 | 0.258 | 0.273 | 0.286 | 0.294 | 0.306 | 0.318
in isopropanol | 0.225 | 0.24 | 0.254 | 0.268 | 0.28 | 0.292 | 0.303 | 0.315 | 0.323
in methanol | 0.2 | 0.214 | 0.227 | 0.247 | 0.261 | 0.276 | 0.284 | 0.3 | 0.314
in n-butanol | 0.189 | 0.202 | 0.216 | 0.23 | 0.245 | 0.26 | 0.275 | 0.29 | 0.306
